In publication PMC6150246, “Design, Synthesis and Preliminary Biological Evaluation of Novel Benzyl Sulfoxide 2-Indolinone Derivatives as Anticancer Agents” (Molecules : A Journal of Synthetic Chemistry and Natural …, 2017):

What was measured:
[1] = tested on: human lung carcinoma A549; experiment: MTS cytotoxicity assay, A549; format: cell-based
Source text: (§1) To investigate the relationship between anticancer activity and tyrosine kinase inhibitory activity, these compounds were further evaluated for in vitro cytotoxicity against five cancer cell lines (human cervical carcinoma cell line HeLa, human breast carcinoma cell line MCF-7, human liver carcinoma cell line HepG2, human tongue carcinoma cell line SCC-15, and human lung carcinoma A549) using MTS assay. Indo 5 was also used as a reference compound.
(§2) The five types of human cancer cell lines (HeLa, HepG2, MCF-7, SCC-15, and A549) were cultured aseptically using Dulbecco’s modified Eagle’s medium (DMEM) supplemented with 10% (v/v) fetal bovine serum (FBS) and penicillin (100 units mL^−1)/streptomycin ([…]), at pH 7.2 and 5% CO2 humidified atmosphere at 37 °C. After attaining 80% confluence, the cells were trypsinized with 0.25 trypsin–EDTA and diluted with media to a fixed number of cells.
(§3) Cytotoxic activity was assessed using the standard MTS method by using triplicate assay. The cells were seeded into 96-well plates containing the medium at the density of 4000–6000 cells/mL (100 μL/well). The compounds were dissolved in DMSO to the concentration of 100 mM and diluted in a culture medium to the concentrations needed. After 24 h, the cultured cells were treated with concentrations of synthesized compounds (3.125 μM to 100 μM for tumor cells) for 48 h. After 48 h of incubation, the supernatant was replaced by fresh medium (100 μL/well) and 10 μL MTS reagent ([3-(4,5-dimethylthiazol-2-yl)-5-(3-carboxymethoxyphenyl)-2-(4-sulfophenyl)-2H-tetrazolium, inner salt]) was added to each well. The plate was further incubated for 3 h at 37 °C in 5% CO2. The optical absorbance in individual wells was determined at 492 nm using a microplate reader. The inhibition rates were calculated by the following formula: Inhibition rate (%) = (ODnegative control − ODsample)/(ODnegative control − ODblank) × 100%
(§4) IC50 was calculated using GraphPad Prism Software (GraphPad Prism 5, La Jolla, CA, USA). For each concentration, at least three wells were performed to calculate the average parameter.

[2] = tested on: human breast carcinoma cell line MCF-7; experiment: MTS cytotoxicity assay, MCF-7; format: cell-based
Source text: as §1, §2, §3, §4

tyrosine kinase = experiment: Tyrosine kinase inhibitory activity assay (self-made ELISA kit); format: biochemical; conditions: for IC50: tyrosine kinase tissue extract, 37 °C 30 min; for tyrosine kinase inhibitory activity, in words: Indo 5 as reference
Experimental: The 16 designed compounds were first evaluated for tyrosine kinase inhibitory activity using ELISA assay. Indo 5 was used as a reference compound. The kit was self-made and is a very effective and economical method for preliminary tyrosine kinase inhibitory activity evaluation.
The tyrosine kinase inhibitory activity assay was performed as described in the literature. Details of the experimental procedures are presented in Supplementary Materials associated with this article. The IC50 was calculated using GraphPad Prism Software (GraphPad Prism 5, La Jolla, CA, USA). For each concentration, at least three wells were performed to calculate the average parameter.
100μL to each well. The plate was covered with its lid, and incubated at 4℃ overnight (10-12 hours). Then it was washed with 200μL elution buffer once, and dried at 37℃ for 2 h. After that, it was washed with 10mM PBS once, dried at room temperature, and then stored at 4℃ […]
2.1.5. Groups: Blank control: 60μL 1×tyrosine kinase buffer + 50μL 1×tyrosine kinase buffer containing ATP; Negative control: 10μL 1×tyrosine kinase buffer + 50μL 1×tyrosine kinase buffer containing tissue extract + 50μL 1×tyrosine kinase buffer containing ATP; Positive control: 10μL 1×tyrosine kinase buffer containing L029 + 50μL 1×tyrosine kinase buffer containing tissue extract + 50μL 1×tyrosine kinase buffer containing ATP; Vehicle control: 10μL 1×tyrosine kinase buffer containing DMSO + 50μL 1×tyrosine kinase buffer containing tissue extract + 50μL 1×tyrosine kinase buffer containing ATP; Compounds to be screened: 10μL 1×tyrosine kinase buffer containing compounds to be tested + 50μL 1× tyrosine kinase buffer containing tissue extract + 50μL 1×tyrosine kinase buffer containing ATP. (First, L029 and the compounds were allowed to interact with the tyrosine kinase tissue extract at room temperature for 10 min in advance, and did the same to the Blank control and the Vehicle control, then 50μL 1×tyrosine kinase buffer containing ATP was added to […]
2.1.6. Tyrosine kinase inhibitory activity assay: 1×tyrosine kinase buffer was prepared by evenly mixing 1 mL 10× tyrosine kinase buffer with 9 mL DDW. The tissue extract was diluted with 1×tyrosine kinase buffer appropriately, mixed with it gently and evenly, and placed on ice. ATP stock solution was mixed with 1×tyrosine kinase buffer at the final concentration of 3mM , and placed on ice. The microplate was added in respective wells with the groups formulated as above, covered with the lid, and incubated at 37℃ for 30 min. The microplate was washed with 200μL elution buffer and tapped until the residual buffer was removed, and this procedure was repeated for five times. To each well, 100μL antibody diluent (antibody elution buffer diluted at a ratio of 1:2000) was added. The microplate was covered with the lid, and incubated at room temperature for 30 min. OPD solution was prepared by addition of 4 mg OPD into a mixture of 4.86 mL 0.1 mol/L citric acid solution and 5.14 mL 0.2 mol/L Na2HPO4 solution, followed by addition of 50μL 30% H202 to allow for complete dissolution, and then was protected from light. The antibody solution was […]
removed. The microplate was washed with 200μL elution buffer and tapped until the residual buffer was removed, and this procedure was repeated for five times. 100μL freshly prepared OPD was added, and reacted at room temperature light tight for precisely 7 min. Negative […]
100μL 2.5 N H2SO4 was added to terminate the reaction. OD
2.1.7. Sample screening: Samples were screened preliminarily by using triplicate assay. The effect of the samples on tyrosine kinase inhibitory activity was tested, and the inhibition rate was calculated. Inhibition rate (%)=(ODnegative control – ODsample) / (ODnegative control* – ODblank) × 100%; *While calculating inhibition rate of positive drugs, ODnegative control in the equation was replaced with ODvehicle control to exclude the influence of DMSO on tyrosine kinase activity. […]
2. S. Praveen Kumar, Jiri Gut, Rita C. […]

[3] = tested on: human cervical carcinoma cell line HeLa; experiment: MTS cytotoxicity assay, HeLa; format: cell-based; conditions: for IC50: 48 h treatment
Source text: as §1, §2, §3, §4

[4] = tested on: human liver carcinoma cell line HepG2; experiment: MTS cytotoxicity assay, HepG2; format: cell-based
Source text: as §1, §2, §3, §4

[5] = tested on: human tongue carcinoma cell line SCC-15; experiment: MTS cytotoxicity assay, SCC-15; format: cell-based
Source text: as §1, §2, §3, §4

[6] = Homo sapiens, A549, 48 h treatment
[7] = Homo sapiens, MCF7, 48 h treatment
[8] = Homo sapiens, HepG2, 48 h treatment
[9] = Homo sapiens, SCC-15, 48 h treatment

Row | Compound | IC50 [1, 6] [µM] | IC50 [2, 7] [µM] | IC50 (tyrosine kinase) [µM] | IC50 ([3]; Homo sapiens, HeLa) [µM] | IC50 [4, 8] [µM] | melting point [°C] | IC50 [5, 9] [µM] | tyrosine kinase inhibitory activity, in words (tyrosine kinase) | activity against the HepG2 cell line, in words [4] | activity against the MCF-7 cell line, in words [2] | activity against the HeLa cell line, in words ([3]; Indo 5 as reference) | IC50 ([1]; 48 h treatment) [µM] | IC50 ([2]; 48 h treatment) [µM] | IC50 [3] [µM] | IC50 ([4]; 48 h treatment) [µM] | IC50 ([5]; 48 h treatment) [µM]
1 | O=C1Nc2ccccc2/C1=C/[S+]([O-])Cc1cccc(Br)c1 (centres unmarked) [Compound 6i, (Z)-3-(((3-Bromobenzyl)sulfinyl)methylene)indolin-2-one] | 64.9 ± 1.57 | 75.1 ± 1.93 | 3.32 ± 0.19 | 48.42 ± 0.14 | 71.8 ± 2.18 | 193 to 194 | 82.1 ± 3.34 |  |  |  |  |  |  |  |  | 
2 | O=C1Nc2ccc(Br)cc2/C1=C/[S+]([O-])Cc1ccccc1F (centres unmarked) [Compound 6p, (Z)-5-Bromo-3-(((2-fluorobenzyl)sulfinyl)methylene)indolin-2-one] | > 100 | 76.4 ± 1.5 | 7.93 ± 0.2 | 19.8 ± 0.25 | > 100 | 208 to 209 | > 100 | weak tyrosine inhibitory activity |  |  |  |  |  |  |  | 
3 | O=C1Nc2ccccc2/C1=C/[S+]([O-])Cc1ccc(Cl)cc1 (centres unmarked) [Compound 6g, (Z)-3-(((4-Chlorobenzyl)sulfinyl)methylene)indolin-2-one] | > 100 | 92.6 ± 0.97 | 3.3 ± 0.03 | 40.9 ± 0.88 | 75.35 ± 0.72 | 193 to 195 | > 100 |  |  |  |  |  |  |  |  | 
4 | O=C1Nc2ccccc2/C1=C/[S+]([O-])Cc1ccccc1Br (centres unmarked) [Compound 6h, (Z)-3-(((2-Bromobenzyl)sulfinyl)methylene)indolin-2-one] | > 100 | > 100 | 3.52 ± 0.15 | 79.9 ± 1.57 | 98.3 ± 2.04 | 198 to 199 | > 100 |  |  |  |  |  |  |  |  | 
5 | O=C1Nc2ccccc2/C1=C/[S+]([O-])Cc1ccc(F)cc1 (centres unmarked) [Compound 6d, (Z)-3-(((4-Fluorobenzyl)sulfinyl)methylene)indolin-2-one] | 90.3 ± 2.14 | 49.12 ± 0.29 | 9.3 ± 0.47 | 25 ± 0.68 | 36.2 ± 0.53 | 193 to 194 | 65 ± 1.47 |  | considerable cytotoxic activity |  |  |  |  |  |  | 
6 | COc1cccc(C[S+]([O-])/C=C2\C(=O)Nc3ccccc32)c1 (centres unmarked) [Compound 6k, (Z)-3-(((3-Methoxybenzyl)sulfinyl)methylene)indolin-2-one] | 62.3 ± 2 | 59.1 ± 37 | 2.23 ± 0.14 | 22.7 ± 0.64 | 49.4 ± 1.33 | 181 to 182 | 86.7 ± 5.16 |  |  |  |  |  |  |  |  | 
7 | O=C1Nc2ccccc2/C1=C/[S+]([O-])Cc1ccccc1 (centres unmarked) [Compound 6a, (Z)-3-((Benzylsulfinyl)methylene)indolin-2-one] | > 100 | 35.2 ± 1.16 | 3.16 ± 0.31 | 11.2 ± 0.42 | 52.1 ± 0.94 | 191 to 192 | 58.9 ± 0.75 |  |  | good antitumor activity | stronger activity than Indo 5 |  |  |  |  | 
8 | O=C1Nc2ccccc2/C1=C/[S+]([O-])Cc1cccc(Cl)c1 (centres unmarked) [Compound 6f, (Z)-3-(((3-Chlorobenzyl)sulfinyl)methylene)indolin-2-one] | > 100 | 93 ± 1.5 | 5.96 ± 0.14 | 60.3 ± 1.98 | 86.5 ± 1.15 | 192 to 194 | 96.8 ± 3.76 |  |  |  |  |  |  |  |  | 
9 | Cc1ccccc1C[S+]([O-])/C=C1\C(=O)Nc2ccccc21 (centres unmarked) [Compound 6l, (Z)-3-(((2-Methylbenzyl)sulfinyl)methylene)indolin-2-one] | > 100 | 81.6 ± 2.62 | 16.02 ± 0.05 | > 100 | > 100 | 198 to 199 | > 100 | weak tyrosine inhibitory activity |  |  |  |  |  |  |  | 
10 | Cc1ccccc1NS(=O)(=O)c1ccc2c(c1)/C(=C/c1nc3ccccc3[nH]1)C(=O)N2 [Indo 5, reference compound] |  |  | 11.6 ± 0.79 |  |  |  |  |  |  |  |  | 29.16 ± 0.29 | 24.2 ± 0.49 | 19.6 ± 0.46 | 22.2 ± 0.41 | 28.2 ± 1.08
11 | O=C1Nc2ccccc2/C1=C/[S+]([O-])Cc1cccc(F)c1 (centres unmarked) [Compound 6c, (Z)-3-(((3-Fluorobenzyl)sulfinyl)methylene)indolin-2-one] | > 100 | 31.5 ± 0.82 | 9.32 ± 0.66 | 24.4 ± 0.54 | 42 ± 0.7 | 186 to 187 | 49.9 ± 0.93 |  |  | good antitumor activity |  |  |  |  |  | 
12 | Cc1ccc(C[S+]([O-])/C=C2\C(=O)Nc3ccccc32)cc1 (centres unmarked) [Compound 6n, (Z)-3-(((4-Methylbenzyl)sulfinyl)methylene)indolin-2-one] | 59.6 ± 0.97 | 55.1 ± 1.51 | 4.39 ± 0.23 | 27.8 ± 0.78 | 59 ± 0.97 | 186 to 188 | 90.5 ± 2.32 |  |  |  |  |  |  |  |  | 
